Assay results from PMC4627284, “High-throughput simultaneous screen and counterscreen identifies homoharringtonine as synthetic lethal with von Hippel-Lindau loss in renal cell carcinoma” (Oncotarget, 2015).

Legend:
[1] = test system: VHL-deficient 786-O cells; assay: High-throughput simultaneous screen and counterscreen, 1:1 mix of EV^GFP and VHL^mCh 786-O cells, fluorescence imaging; format: cell-based, human; conditions: 2 nM; equally affected VHL-deficient and VHL-reconstituted cells
Excerpt: To identify small molecule compounds synthetic lethal with VHL, we carried out an unbiased cell-based screen of a chemical library of ~12,800 compounds using 786-O cells, an extensively studied cell line derived from a VHL-deficient primary human ccRCC [26]. 786-O cells were stably transfected with either an empty vector (EV) control or reconstituted with an HA-tagged VHL cDNA. […] To distinguish between the two otherwise isogenic cell lines, we transduced the VHL-deficient 786-O cells with a histone H2B-GFP reporter and the VHL-reconstituted cells with an H2B-mCherry reporter. The histone proteins drive the fluorochrome to nuclei facilitating cell identification and segmentation algorithms (Figure 1A and 1B). […]
Figure 1 Screening strategy to identify compounds that are synthetic lethal with VHL A. Schematic diagram of a ~12,800 chemical library synthetic lethal screen. […] Fluorescence imaging (using the BD Pathway 855 imager) was used to identify compounds preferentially depleting VHL-deficient/GFP-positive cells after cells were segmented. B. Left panel: Representative image of fluorescence signal from Hoescht-labeled 786-O cells. Right panel: overlay of GFP fluorescence signal (green; from 786-O EV^GFP cells) and mCherry fluorescence nuclear signal (red; VHL^mCh cells). […] Toxicity was determined as ≤100 VHL^mCh cells per field. […]

[2] = test system: VHL-mutant patient-derived ccRCC tumorgraft lines; assay: ccRCC tumorgraft model, six VHL-mutant tumorgraft lines; format: in vivo, NOD/SCID mice; conditions: 0.5 mg/kg IP once every 48 hours, positive control
Experimental: We selected 6 independently-derived ccRCC tumorgraft lines that were confirmed to have VHL mutation. The mice (3-5 mice per tumorgraft line) were treated with either HHT (0.7 mg/kg), vehicle (as a negative control), or rapamycin (0.5 mg/kg; as a positive control). In total, 65 tumorgraft bearing mice were evaluated for these experiments in time courses lasting ~28 days, with tumor growth measured every 3 or 4 days.
Figure 3 HHT inhibits tumor growth in a ccRCC tumorgraft model A-F, Tumorgraft lines were treated with vehicle control, HHT (0.7 mg/kg), rapamycin (0.5 mg/kg), (or the combination, where indicated) and tumor growth was measured on the indicated days. Day 0 represents the first day of treatment.
Tumorgrafts were generated and propagated as described previously, with tumor samples implanted subcutaneously into the flank of the mouse for drug trials. Briefly, 4- to 8-week-old NOD/SCID mice were anesthetized with isoflurane and implanted subcutaneously with 64 mm^3 tumor fragments (cohorts 2-20). Once tumors reached an average of at least ~250 mm^3, drug treatment was begun. The mice were treated with vehicle, 0.7 mg/kg homoharringtonine (HHT) via gavage twice daily, or 0.5 mg/kg rapamycin given by IP injection once every 48 hours. Tumor size (volume) was measured twice weekly and was obtained by multiplying tumor length, width, and depth using calipers. To assess toxicity, mouse weight was monitored once weekly.
Sections from tumors were stained with hematoxylin and eosin (H&E) as described previously.

CO[C@H]1C[C@@H]2CC[C@@H](C)[C@@](O)(O2)C(=O)C(=O)N2CCCC[C@H]2C(=O)O[C@H]([C@H](C)C[C@@H]2CC[C@@H](O)[C@H](OC)C2)CC(=O)[C@H](C)/C=C(\C)[C@@H](O)[C@@H](OC)C(=O)[C@H](C)C[C@H](C)/C=C/C=C/C=C/1C [rapamycin, Rapamycin (sirolimus)]
effect on cell proliferation [1]: modestly reduced cell proliferation
response of tumorgraft lines [2]: Most lines responded
